SMILES strings stand for the structures. Values after ≈ are worked out from the molar mass of the structure shown. Read-outs that look alike come from different tables or passages of the source.

The record followed here is patent publication US8841382B2, “Hyperbranched polyethers/dendrimers for solubilzation of sparingly soluble active ingredients” (BASF SE, priority 2010, dated 2014).

A short description of the series: Measurement of the solubilization of active ingredients by amphiphiles. The class given is physicochemical. The note with it: thermodynamic from solid. The source says:
After a rest time of one hour, excess (i.e. unsolubilized) active ingredient was removed by centrifuging. The resulting clear or opaque solution was subsequently analyzed for its active ingredient content by means of UV spectroscopy. The wavelengths of the UV spectroscopy measurement are compiled in table 1.

The mark [1] stands for this setting: distilled water without polymer, room temperature, stirred 24 h, UV spectroscopy, read-out: Solubility of active ingredient, no polymer (noninventive).

In the case of `NC(=O)N1c2ccccc2C=Cc2ccccc21` [Carbamazepine], under setting [1], the solubility at 24 h worked out at 140 µg/mL (≈ 593 µM).

In the case of `N#Cc1nn(-c2c(Cl)cc(C(F)(F)F)cc2Cl)c(N)c1[S+]([O-])C(F)(F)F` (stereo not shown) [Fipronil], the concentration in solution (water) (solubility at 24 h) was 3 µg/mL (≈ 6.86 µM).

Consider `CN1C(C(=O)Nc2ccccn2)=C(O)c2ccccc2S1(=O)=O` [Piroxicam], for which the solubility at 24 h under setting [1] was 21 µg/mL (≈ 63.4 µM).

Consider `COC(=O)N(OC)c1ccccc1COc1ccn(-c2ccc(Cl)cc2)n1` [Pyraclostrobin], for which the solubility at 24 h under setting [1] worked out at 22.5 µg/mL (≈ 58 µM).

Usually solubility stands for the dissolved amount per volume that the medium holds.
